Test results published in paper PMC5549488, “Synthesis, Characterization, Cytotoxic Activity, and Interactions with CT-DNA and BSA of Cationic Ruthenium(II) Complexes Containing Dppm and Quinoline Carboxylates” (Bioinorganic Chemistry and Applications, 2017).

Target: T1, bovine serum albumin (BSA) (Bos taurus, UniProt P02769)
T1 construct: gene ALB
Assay: tryptophan fluorescence quenching (Stern-Volmer, double-log plot), […] K; Kb given
Type: binding

T1 sequence (P02769 25-607): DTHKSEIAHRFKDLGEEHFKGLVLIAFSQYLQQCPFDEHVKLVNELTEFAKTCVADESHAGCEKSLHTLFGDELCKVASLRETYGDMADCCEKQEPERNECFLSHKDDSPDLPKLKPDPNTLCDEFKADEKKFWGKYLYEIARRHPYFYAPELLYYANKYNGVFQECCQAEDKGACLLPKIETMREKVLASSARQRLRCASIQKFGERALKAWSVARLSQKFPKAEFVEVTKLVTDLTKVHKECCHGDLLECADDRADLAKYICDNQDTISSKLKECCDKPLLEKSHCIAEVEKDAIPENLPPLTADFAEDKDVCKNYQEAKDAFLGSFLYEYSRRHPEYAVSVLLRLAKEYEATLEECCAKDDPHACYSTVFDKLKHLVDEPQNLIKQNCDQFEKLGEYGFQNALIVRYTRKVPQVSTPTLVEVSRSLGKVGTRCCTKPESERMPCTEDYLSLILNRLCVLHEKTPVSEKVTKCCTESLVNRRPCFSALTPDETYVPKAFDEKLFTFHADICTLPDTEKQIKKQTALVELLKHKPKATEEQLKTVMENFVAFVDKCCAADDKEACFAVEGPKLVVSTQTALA

Substance	K b / (×10^5)
cis-[Ru(quin)(dppm)2]PF6 [compound 1]	4.77 (×10^5) (Kb)
cis-[Ru(kynu)(dppm)2]PF6 [compound 2]	3.25 (×10^5) (Kb)
